Experimental data reported in patent US9211283B2, “Nanoparticle carrier systems based on human serum albumin for photodynamic therapy” (Biolitec Pharma Marketing Ltd, priority 2009, dated 2015).

Experiments:
[1] = Singlet oxygen generation and triplet parameters; type: physicochemical; settings: in ethanol
[2] = Fluorescence lifetime; type: physicochemical
[3] = test system: Jurkat cells; experiment: Dark toxicity (trypan blue test, apoptotic blebbing); type: cell-based; settings: 3 μM mTHPC, 1 h, 3 h, 5 h and 24 h incubation in darkness, FIG. 6A
Protocol: Intracellular uptake and phototoxicity of the present nanoparticles formulation was studied using Jurkat-cell suspensions cultured in RPMI1640 medium. All cells were incubated in 3 μM mTHPC and mTHPC loaded into different concentration of HSA based nanoparticles for set period of time (1 h, 3 h, 5 h, 24 h). The HSA-based nanoparticles of varying HSA concentration was used to determine the intracellular uptake and phototoxicity effect of the cells suspension.
Trypan blue test was used to assess the necrotic cells, apoptotic cells were detected by their change of cell shape (apoptotic blebbing).
In each case Jurkat cells were incubated in five samples. After 1 h, 3 h, 5 h. and 24 h incubation in darkness an aliquot of each sample was investigated. Trypan blue test was used to assess the necrotic cells, apoptotic cells were detected by their change of cell shape (apoptotic blebbing). Little or no effect was found. In other words dark toxicity was not observed for the mTHPC concentrations used.

O=C([O-])c1c(Cl)c(Cl)c(Cl)c(Cl)c1-c1c2cc(I)c(=O)c(I)c-2oc2c(I)c([O-])c(I)cc12.[Na+].[Na+] [Rose Bengal]
ΦΔ (±0.03) (singlet oxygen quantum yield) [1]: 0.75
τT (lifetime of triplet state) [1]: 3.3 ± 0.1 μs
τΔ (lifetime of singlet oxygen) [1]: 64.1 ± 0.2 μs

Oc1cccc(-c2c3nc(c(-c4cccc(O)c4)c4ccc([nH]4)c(-c4cccc(O)c4)c4nc(c(-c5cccc(O)c5)c5ccc2[nH]5)C=C4)C=C3)c1 [mTHPP, 5,10,15,20-tetrakis(m-hydroxyphenyl)-porphyrin]
τ3 [ns] ± 0.2 ([2]; fluorescence lifetime, in EtOH (monomers)): 9.6 ns
Amplitude [%] of τ3 ([2]; in EtOH): 100%

Oc1cccc(-c2c3nc(c(-c4cccc(O)c4)c4ccc([nH]4)c(-c4cccc(O)c4)c4nc(c(-c5cccc(O)c5)c5ccc2[nH]5)CC4)C=C3)c1 [mTHPC, 5,10,15,20-tetrakis(3-hydroxyphenyl)-chlorin]
Dark toxicity [3]: not observed
